Laboratory results published in patent publication US12643884B2, “1-(2-(4-cyclopropyl-1H-1,2,3-triazol-1-yl)acetyl)-4-hydroxypyrrolidine-2-carboxa|mide derivatives as VHL inhibitors for the treatment of anemia” (Genentech, Inc., priority 2020, dated 2026).
pEC50, pIC50: −log10 of the molar value.

Legend:
[1] = target: T1, VHL Elongin B/C complex (Homo sapiens, UniProt P40337); test: Fluorescence Polarization (FP) VHL Binding Assay; settings: fluorescence polarization tracer competition; geometric mean where more than one measurement
T1 construct: amino acids E55-D213 of human VHL; His6 (N); TEV-protease cleavage site (N); made in house; host or cells: E. coli
T1 sequence (P40337 55-213): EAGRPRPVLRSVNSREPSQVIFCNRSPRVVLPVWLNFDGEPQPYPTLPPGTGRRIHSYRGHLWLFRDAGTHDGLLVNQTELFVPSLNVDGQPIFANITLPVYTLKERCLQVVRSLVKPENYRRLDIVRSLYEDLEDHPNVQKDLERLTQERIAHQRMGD
T1 sequence (Q15370 whole entry partner, the tested form may be a part): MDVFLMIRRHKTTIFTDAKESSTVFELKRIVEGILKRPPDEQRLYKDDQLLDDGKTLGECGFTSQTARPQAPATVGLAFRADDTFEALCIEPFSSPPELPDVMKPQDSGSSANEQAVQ
T1 sequence (Q15369 17-112 partner limits assumed): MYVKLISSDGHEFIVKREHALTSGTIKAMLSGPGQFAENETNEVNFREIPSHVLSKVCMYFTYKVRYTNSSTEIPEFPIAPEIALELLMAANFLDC
Procedure: The binding of test compounds to the VHL Elongin B/C complex is measured using a fluorescence polarization tracer competition assay. The VHL/Elongin B/C protein complex used in the assay is generated as follows. The coding region for amino acids E55-D213 of human VHL with N-terminal His6 tag with a TEV-protease cleavage site is co-expressed with Elongin B (residues M1-Q118) and Elongin C (Residues M17-C112) in E. coli. The VHL/Elongin B/C complex is purified using an affinity nickel column, anion exchange HiTrap QP HP column chromatography, and gel filtration using a Superdex 75 26/60 column. […] A VHL fluorescence polarization probe consists of a VHL ligand coupled to carboxytetramethylrhodamine (TAMRA); (2S,4R)—N-(2-(2-(3′,6′-bis(dimethylamino)-3-oxo-3H-spiro[isobenzofuran-1,9′-xanthene]-5-carboxamido)ethoxy)-4-(4-methylthiazol-5-yl)benzyl)-4-hydroxy-1-((R)-3-methyl-2-(3-methylisoxazol-5-yl)butanoyl)pyrrolidine-2-carboxamide. […] A “pre-assay” fluorescence measurement is made using an Infinite® M1000 (Tecan) plate reader (Excitation 530 nm, Emission 574 nm, Bandwidth 10 nm). […] “Post-assay” fluorescence polarization measurements are made as described for the “pre-assay” fluorescence measurement. […] The data are analyzed using Genedata Screener software and normalized to the “no VHL control” and “VHL control” (without compound). […]

[2] = target: T2, NanoLuc VHL fusion protein stably expressed in HEK 293 cells (Homo sapiens, UniProt P40337); test: VHL HEK-293 BRET Assay (VHL NanoBRET Target Engagement Assay); assay type: cell-based
T2 construct: expressed in transfected cells
T2 sequence (P40337 whole entry, the tested form may be a part): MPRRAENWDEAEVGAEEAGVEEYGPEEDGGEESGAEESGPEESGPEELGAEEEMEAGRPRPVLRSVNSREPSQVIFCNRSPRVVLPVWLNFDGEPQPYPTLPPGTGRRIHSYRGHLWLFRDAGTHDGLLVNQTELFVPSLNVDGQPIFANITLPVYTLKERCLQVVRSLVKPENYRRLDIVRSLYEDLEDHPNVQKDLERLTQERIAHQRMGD
T2 sequence (Q15370 whole entry partner, the tested form may be a part): as the sequence (Q15370 whole entry partner, the tested form may be a part) above
T2 sequence (Q15369 whole entry partner, the tested form may be a part): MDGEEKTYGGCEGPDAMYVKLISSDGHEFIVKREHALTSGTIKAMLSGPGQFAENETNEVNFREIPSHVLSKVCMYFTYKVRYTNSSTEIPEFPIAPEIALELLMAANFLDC
Procedure: The VHL NanoBRET™ Target Engagement Assay analyzes the apparent affinity of test compounds for VHL in cells by competitive displacement of a VHL NanoBRET™ tracer reversibly bound to a NanoLuc® VHL fusion protein stably expressed in the cells.
Test compounds were transferred to the assay plate (384 Well White Non-Binding Corning Assay Plates (Corning-3574)) using an Echo 555 Liquid Handler (Labcyte) in 2.5 nL increments and, as appropriate, intermediate stock concentrations of compounds, in order to prepare a titration series. 50 nL of control compound (10 mM; parental unlabeled VHL antagonist; see structure below) and 50 nL of DMSO (negative control) were dispensed into the appropriate control wells. DMSO was backfilled to a final volume of 50 nL as required. 50 nl per well of 1 mM VHL NanoBRET™ Tracer in DMSO (NanoBRET™ Tracer-PEG2-590 (see structure below)) was transferred into each well using an Echo 555 (ultimately yielding a final concentration of 1 uM). HEK 293 RT VHL-NanoLuc® stable cells were cultured in DMEM High Glucose with Pyruvate, 10% fetal bovine serum, 2 mg/mL of Geneticin Selective Antibiotic (50 mg/ml) and 2 mM HEPES (1 M). Cells were seeded in Opti-MEM (Life Technologies-11058-021), 1.7×10^5 cells/mL, 40 μl per well into the assay plate, centrifuged at 500 rpm for 30 seconds and incubated for 2 hours. Max Signal control wells consisted of DMSO only treated wells. Minimum Signal control wells contained of 10 uM parental unlabeled VHL antagonist (control compound—see structure below). 3× Complete Substrate plus Inhibitor Solution was prepared in Opti-MEM (consists of a 1:166 dilution of NanoBRET™ Nano-Glo® Substrate plus a 1:500 dilution of Extracellular NanoLuc® Inhibitor in Opti-MEM), and 20 ul was dispensed into each well of the 384-well plate and centrifuged at 1000 rpm for 1 minute, then incubated for 2 minutes at room temperature. Background Signal control wells were prepared without tracer for background correction steps.
Plates were read using a PerkinElmer Envision Reader (model 2104-0020) equipped with Luminescence option (Mirror: BRET2 Enh (PE Barcode 659), Emission Filter: Omega 610LP (Barcode 504), 2nd Emission Filter: Umbelliferone 460 (Barcode 207), Measurement height: 6.5 mm, Measurement time: 1 s). The raw BRET ratio values were calculated by dividing the acceptor emission value (610 nm) by the donor emission value (460 nm) for each sample. To correct for background, the BRET ratio in the absence of tracer (average of no-tracer control samples) was subtracted from the BRET ratio of each sample. Raw BRET units were converted to milliBRET units (mBU) by multiplying each raw BRET value by 1,000. The normalized NanoBRET™ signal was calculated relative to the Max Signal control wells (DMSO treated control wells) and the Minimum Signal control wells. Percentage inhibition was calculated relative to the Minimum Signal control and Maximum Signal control wells. IC50 values were derived by four parameter curve fitting using the Robust method.

[3] = target: T3, VHL (Homo sapiens, UniProt P40337); test: VHL nanoBRET (+Digitonin); assay type: cell-based
T3 construct: expressed in transfected cells
T3 sequence (P40337 whole entry): as the sequence (P40337 whole entry, the tested form may be a part) above
T3 sequence (Q15370 whole entry partner): as the sequence (Q15370 whole entry partner, the tested form may be a part) above
T3 sequence (Q15369 whole entry partner): as the sequence (Q15369 whole entry partner, the tested form may be a part) above

- pIC50 [1]: 5.93
- pIC50 ([2]; HEK293 cells, nanoBRET, geometric mean where more than one measurement, read-out: VHL binding in cells (HEK293 nanoBRET)): 5.70
- Ratio cell permeability shift ([2]; ratio of nanoBRET in cells to nanoBRET +Digitonin): 1.71
- pEC50 [3]: 5.67
Compound: CC(C)(C)[C@@H](C(=O)N1C[C@H](O)C[C@H]1C(N)=O)n1cc(C2CC2)nn1 [Final product from Example S1, (2S,4R)-1-((S)-2-(4-cyclopropyl-1H-1,2,3-triazol-1-yl)-3,3-dimethylbutanoyl)-4-hydroxypyrrolidine-2-carboxamide]
